Data on twelve compounds can be found in ChEMBL document CHEMBL3045201, “Quantitative Structure-Activity Relationships of Fluazinam and Related Fungicidal N-phenylpyridinamines” (1996).

Experiment [1] concerns Pyricularia oryzae. Put plainly: Fungicidal activity against Magnaporthe oryzae infected in 24 hr compound pre-treated Oryza sativa cv. Chukyoasahi assessed as disease control measured after 10 days. Type of experiment: functional.
The subject of experiment [2] is Rhizoctonia solani. Put plainly: Fungicidal activity against Rhizoctonia solani infected in 24 hr compound pre-treated Oryza sativa cv. Chukyoasahi assessed as disease control measured after 10 days. The format is functional.
The test system of experiment [3] is Podosphaera fuliginea. Briefly: Fungicidal activity against Podosphaera fuliginea infected in 24 hr compound pre-treated cucumber plant assessed as disease control measured after 10 days. The format is functional.
For experiment [4], the system named is Botrytis cinerea. Put plainly: Fungicidal activity against Botryotinia fuckeliana assessed as SH-inhibition. Type of experiment: functional, organism-based.
The subject of experiment [5] is Rhizoctonia solani. Put plainly: Fungicidal activity against Rhizoctonia solani assessed as mitochondrial uncoupling activity. The format is functional, organism-based.
For experiment [6], the system named is Podosphaera fuliginea. Briefly: Fungicidal activity against Podosphaera fuliginea assessed as mitochondrial uncoupling activity. Type of experiment: functional, organism-based.
Experiment [7] concerns Pyricularia oryzae. Put plainly: Fungicidal activity against Magnaporthe oryzae assessed as mitochondrial uncoupling activity. The format is functional, organism-based.
Experiment [8] concerns Botrytis cinerea. Put plainly: Fungicidal activity against Botryotinia fuckeliana assessed as mitochondrial uncoupling activity. Type of experiment: functional, organism-based.
The test system of experiment [9] is Pyricularia oryzae. Briefly: Fungicidal activity against Magnaporthe oryzae assessed as SH-inhibition. Type of experiment: functional, organism-based.
Experiment [10] concerns Rhizoctonia solani. Put plainly: Fungicidal activity against Rhizoctonia solani assessed as SH-inhibition. The format is functional, organism-based.
Experiment [11] is filed under the species Rattus norvegicus. Briefly: Inhibition of mitochondrial uncoupling in Rattus norvegicus (rat). Type of experiment: functional, organism-based.
The test system of experiment [12] is Podosphaera fuliginea. Briefly: Fungicidal activity against Podosphaera fuliginea assessed as SH-inhibition. The format is functional, organism-based.

Each structure is given as a SMILES string. Calls of active or inactive are those of the source. No cut-off for these calls is given here.

With `O=[N+]([O-])c1cc(C(F)(F)F)c(Br)c([N+](=O)[O-])c1Nc1ncc(C(F)(F)F)cc1Cl`, the I90 in [1] is 16 ppm; in experiment [2], 63 ppm; in experiment [3], 63 ppm.
For the compound `COc1c(C(F)(F)F)cc([N+](=O)[O-])c(Nc2ncc(C(F)(F)F)cc2Cl)c1[N+](=O)[O-]`, the I90 is <16 ppm in [1], 16 ppm in experiment [2] and 63 ppm in experiment [3].
Turning to `CC(C)COc1c(C(F)(F)F)cc([N+](=O)[O-])c(Nc2ncc(C(F)(F)F)cc2Cl)c1[N+](=O)[O-]`, the I90 in experiment [1] is >500 ppm; in experiment [2], 63 ppm; in experiment [3], >500 ppm.
As to `CCCCOc1c(C(F)(F)F)cc([N+](=O)[O-])c(Nc2ncc(C(F)(F)F)cc2Cl)c1[N+](=O)[O-]`, the I90 in experiment [1], in experiment [2] and in [3] was >500 ppm each time.
For `CCOc1c(C(F)(F)F)cc([N+](=O)[O-])c(Nc2ncc(C(F)(F)F)cc2Cl)c1[N+](=O)[O-]`, the I90 in experiment [1], in [2] and in experiment [3] was 16 ppm each time.
For `CCCOc1c(C(F)(F)F)cc([N+](=O)[O-])c(Nc2ncc(C(F)(F)F)cc2Cl)c1[N+](=O)[O-]`, the I90 in [1] is 63 ppm; in experiment [2], 16 ppm; in experiment [3] it was >500 ppm.
The like results for `O=[N+]([O-])c1cc(C(F)(F)F)c(OCC(F)(F)F)c([N+](=O)[O-])c1Nc1ncc(C(F)(F)F)cc1Cl` were, in that order, >500 ppm, 63 ppm and 16 ppm.
Take `C[S+]([O-])c1c(C(F)(F)F)cc([N+](=O)[O-])c(Nc2ncc(C(F)(F)F)cc2Cl)c1[N+](=O)[O-]` (centres undefined): the I90 is listed as 63 ppm in [1], >500 ppm in experiment [2] and >500 ppm in [3].
As for `CSc1c(C(F)(F)F)cc([N+](=O)[O-])c(Nc2ncc(C(F)(F)F)cc2Cl)c1[N+](=O)[O-]`, the I90 in experiment [1] was <16 ppm; in experiment [2], 16 ppm; in experiment [3], 16 ppm.
With `Nc1c(C(F)(F)F)cc([N+](=O)[O-])c(Nc2ncc(C(F)(F)F)cc2Cl)c1[N+](=O)[O-]`, the I90 in experiment [1], in experiment [2] and in experiment [3] was >500 ppm in each case.
For `O=[N+]([O-])c1cc(C(F)(F)F)c(Cl)c([N+](=O)[O-])c1Nc1ncc(C(F)(F)F)cc1Cl` [FLUAZINAM], the result in [4], in experiment [5], in [6], in experiment [7], in experiment [9] and in [10] was Active. The outcome in experiment [11] was Active. For the same compound, the I90 was <16 ppm in [1] and 63 ppm in experiment [3]. Moreover, the result in experiment [8] and in [12] was inactive.
Consider `O=[N+]([O-])c1cc(C(F)(F)F)c(I)c([N+](=O)[O-])c1Nc1ncc(C(F)(F)F)cc1Cl`, for which the I90 was 16 ppm in [1], >500 ppm in [2] and >500 ppm in experiment [3].
